Measurements: US20250263669A1, “INDUCED TOTIPOTENT STEM CELLS AND PREPARATION METHOD THEREFOR” (TSINGHUA UNIVERSITY, priority 2021, published 2025)

Columns and labels:
[1] = test system: totipotency genes, maternal genes and ZGA genes; experiment: RNA-seq analysis of specific gene sets in totipotent cell induction; format: cell-based, mouse; conditions: for role in induction of totipotent stem cells (upregulation of totipotency genes, maternal genes and ZGA genes): RNA-seq, specific gene sets
NF-κB signaling = experiment: GO analysis and gene expression after WS6 withdrawal in ciTotiSC culture conditions; format: cell-based, mouse
Source text: WS6 is an IKK—NF-κB inhibitor that was previously shown to promote post-mitotic cell proliferation. […] Furthermore, it has been reported that downregulation of NF-κB during zygote development is critical for its totipotent state, and activation of NF-κB triggers subsequent development after ZGA (Akihiko Nishikimi, 1999; Paciolla et al. 2011). Therefore, WS6 may play a role in promoting and stabilizing induction of totipotent stem cells (ciTotiSCs), in part by inhibiting the NF-κB mediated immune response triggered by ERV activation (FIGS. 10k, j).

Wnt signaling [2] = experiment: GO analysis of Wnt signaling-targeted genes in ciTotiSC culture conditions; format: cell-based, mouse; conditions: 1-AKP withdrawn in ciTotiSC culture conditions
Source text: (§1) Meanwhile, the inventors also observed a prolongation of the G2 phase of the cell cycle after induction of totipotent stem cells (ciTotiSCs), which was consistent with the difference between early 2C embryos and blastocysts (FIG. 10i).

Wnt signaling [3] = conditions: studies have shown; cited from earlier work
[4] = test system: totipotent stem cells (ciTotiSCs); experiment: Cell cycle G2 phase of totipotent stem cells (ciTotiSCs); format: cell-based, mouse; conditions: 1-Azakenpaullone withdrawn from ciTotiSC culture conditions
Source text: as §1

SMILES: C/C(=C\c1ccc(C(=O)O)cc1)c1ccc2c(c1)C(C)(C)CCC2(C)C [TTNPB]
- activation of totipotency, maternal and ZGA genes rich in RAR-binding motifs [1]: could directly activate
- role in induction of totipotent stem cells (upregulation of totipotency genes, maternal genes and ZGA genes) [1]: important for the induction of totipotent stem cells

SMILES: CN1CCN(Cc2ccc(NC(=O)Cc3ccc(Oc4cc(NC(=O)C5CC5)ncn4)cc3)cc2C(F)(F)F)CC1 [WS6]
- role in induction of totipotent stem cells (upregulation of totipotency genes, maternal genes and ZGA genes) [1]: important for the induction of totipotent stem cells
- expression of genes downstream of NF-κB signaling (NF-κB signaling; WS6 withdrawn): up-regulated
- GO analysis of differential genes after WS6 ablation (NF-κB signaling; ciTotiSC culture conditions): enriched multiple innate immunity-related pathways, especially NF-κB signaling

SMILES: O=C1Cc2c([nH]c3ccc(Br)cc23)-c2ncccc2N1 [1-Azakenpaullone]
- role in induction of totipotent stem cells (upregulation of totipotency genes, maternal genes and ZGA genes) [1]: important for the induction of totipotent stem cells
- specific Wnt signaling-targeted genes after withdrawal (Wnt signaling [2]): not up-regulated
- Wnt signaling downstream gene expression and cell cycle arrest (Wnt signaling [3]): induces specific Wnt signaling downstream gene expression and G2/M arrest simultaneously
- G2 phase prolongation of ciTotiSCs after withdrawal [4]: reduced

SMILES: Cc1ccc(C2=CCC(C)(C)c3ccc(C#Cc4ccc(C(=O)O)cc4)cc32)cc1 [AGN193109]
- gene induction in the presence of the RA antagonist ([1]; in the presence of AGN193109): could not be induced
